Values quoted from earlier work, collected in patent publication EP4379726A1, “THE METHOD FOR PREDICTING THE OCCURRENCE OF THE OFF-TARGET TOXICITY CAUSED BY SIMILARITY BETWEEN A TARGET EPITOPE AND PUTATIVE OFF-TARGET EPITOPES” (Ardigen S.A., priority 2022, dated 2024).

Test system: AFP 158 -Specific TCR Engineered T Cells
Details: in vitro X-scan, engineered T cells against AFP 158 (FMNKFIYEI)

Question: For ILNKFIPDI, which “activation of the T-cell” value is on record?
Answer: could activate the T-cell
